Columns and labels:
Format in all cases: in vivo
[1] = tested on: vomiting response to apomorphine HCl; test: Anti-emetic activity in the dog (apomorphine HCl induced vomiting); conditions: Canis lupus familiaris, sc, 30 min before apomorphine HCl 0.1 mg/kg s.c.
Description: I. Anti-emetic acitivity in the dog
Compounds were administered subcutaneously 30 minutes prior to administration of a standard dose of apomorphine HCl (0.1 mg/kg subcutaneously) and the vomiting response compared to that obtained when the same animals were dosed with apomorphine HCl and vehicle only.
(§1) The tests I and II shown above for anti-emetic and CNS activity respectively were used for the comparison testing of representative Compound 1 with 4-amino-5-chloro-2-methoxy-N-(3'β-[8'-benzyl]-8-azabicyclo[3.2.1]octyl)benzamide (A'). Compound A' was chosen because of the compounds specifically disclosed in European Patent Application No. 793029978 and U.S. Pat. No. 4,273,778 it has the best anti-emetic activity and is the structurally closest compound to compound 1. Other compounds of the Examples were also submitted to tests I and II.

Dopamine Receptor = test: Dopamine receptor blocking activity in the CNS: inhibition of apomorphine induced climbing in the mouse; conditions: s.c. (table footnote), apomorphine 1 mg/kg s.c. induced climbing
[2] = tested on: gastric motility inhibited by 6,7-ADTN; test: Gastric motility testing in the rat: reversal of the inhibitory effect of 6,7-ADTN; conditions: s.c., 10 minutes after 6,7-ADTN 1 mg/kg s.c.; conscious chronic gastric fistula rat
Description: III. Gastric Motility Testing in the rat
The compounds were tested for ability to reverse the inhibitory effect of 6,7-ADTN on gastric motility as recorded by an open tipped catheter in the conscious chronic gastric fistula rat. Administration of 1 mg/kg s.c. of 6,7-ADTN reduced basal gastric motor activity and this was reversed by the administration of 0.008 mg/kg s.c. of compound 1. administered 10 minutes after the 6,7-ADTN. […] For subcutaneous testing the compound was dissolved in water by the addition of tartaric acid (1/2 mole per mole of compound).

[3] = Therapeutic ratio for anti-emetic activity based upon CNS effects (tests I and II); conditions: relative to compound A'
Description: as §1

Compound | ED50 [1] | CNS activity (ED50) (Dopamine Receptor) | dose reversing the 6,7-ADTN inhibition of gastric motor activity [2] | improvement of therapeutic ratio for anti-emetic activity based upon CNS effects, compared with compound A' [3]
CCS(=O)(=O)c1cc(C(=O)N[C@@H]2C[C@H]3CC[C@@H](C2)N3Cc2ccccc2)c(OC)cc1N [Compound 2, 4-Amino-5-ethylsulphonyl-2-methoxy N-[3-β-(8-benzyl-8azabicyclo{3,2,1}octyl)]benzamide] | 0.01 mg/kg | 3.5 mg/kg |  | 
COc1cc(N)c(S(C)(=O)=O)cc1C(=O)N[C@@H]1C[C@H]2CC[C@@H](C1)N2C [Compound 3, 4-Amino-2-methoxy-5-methylsulphonyl-N-[3β-(8-methyl-8-azabicyclo[3.2.1]octyl)]benzamide] | 0.5 mg/kg | 80 mg/kg |  | 
COc1cc(N)c(Cl)cc1C(=O)N[C@@H]1C[C@H]2CC[C@@H](C1)N2Cc1ccccc1 [Compound A', 4-amino-5-chloro-2-methoxy-N-(3'β-[8'-benzyl]-8-azabicyclo[3.2.1]octyl)benzamide, reference compound] | 0.0005 mg/kg | 0.0029 mg/kg |  | 
COc1cc(N)c(S(C)(=O)=O)cc1C(=O)N[C@@H]1C[C@H]2CC[C@@H](C1)N2Cc1ccccc1 [Compound 1, 4-Amino-2-methoxy-5-methylsulphonyl-N-[3-β-(8-benzyl-8-azabicyclo[3.2.1]octyl)]benzamide] | 0.002 mg/kg | 3.5 mg/kg | 0.008 mg/kg | more than 300 times

From patent publication US4410535A, “Aza-bicyclo-benzamide derivatives and pharmaceutical compositions and use thereof” (Beecham Group Limited, priority 1980, dated 1983)
